{"source": "patent US20120322699A1", "about": "“Method of Preventing Scale Formation During Enhanced Oil Recovery” (Chevron U.S.A. Inc., priority 2011, published 2012)", "key": {"[1]": {"assay": "Final bottle tests of formulations at lower agent concentrations with scale inhibitors", "format": "physicochemical", "protocol": "Based on the above results, two commercial scale inhibitors were combined in synthetic brine with the metal complexing agents. The pH of the solutions was raised by addition of 1.0M NaOH to simulate the basic environment during an alkaline flood. The following procedure was used to prepare the aqueous solutions: • 1. Synthetic field brine was prepared by temporarily excluding the HCO3^−. • 2. Scale inhibitor was added and the solution was allowed to equilibrate after thorough mixing. • 3. Metal complexing agent was added to the brine above in concentrations near half of the stoichiometrically required amount and the solution was allowed to equilibrate after thorough mixing. • 4. NaHCO3 was added and the brine solutions were equilibrated. • 5."}, "[2]": {"assay": "Initial screening of complexing agents and scale inhibitors with synthetic brine", "format": "physicochemical", "conditions": "for Maximum pH: complexing agents, synthetic brine 1,000 ppm Ca2+/Mg2+, 450 ppm HCO3-", "quoted_text": "Eight different metal complexing agents and five commercial scale inhibitors were tested according to known laboratory methods with a synthetic brine containing 1,000 ppm of divalent cation (Ca^2+/Mg^2+) and 450 ppm of HCO3^−. Among the complexing agents tested, six were organic ligands with carboxylate moieties and two were inorganic phosphates. The five scale inhibitors tested were commercial products supplied by Nalco Chemicals based on phosphonate, acrylate and sulfonate."}, "[3]": {"assay": "Bottle test of scale prevention capacity of metal complexing agents", "format": "physicochemical", "protocol": "Scale prevention capacity of the metal complexing agents were then tested using the following bottle test procedure: • 1. Synthetic field brine was prepared with NaCl and NaHCO3 (constituents of the brine) but CaCl2 and MgCl2 content was temporarily withheld to avoid premature scaling. • 2. Metal complexing agent was added to the brine above in a stoichiometrically required amount and at higher concentrations and the solution was allowed to equilibrate after thorough mixing. • 3. CaCl2 and MgCl2 were added and the brine solutions were equilibrated. • 4. In a preliminary test, the impact of pH alone was evaluated. […] If no scale was observed, step 4 was repeated with addition of Na2CO3."}, "[4]": {"conditions": "at 25° C.; cited from earlier work"}, "[5]": {"assay": "Initial bottle tests with BASF complexing agents without changing the pH", "format": "physicochemical", "conditions": "equimolar concentration (7,350 ppm) with the calcium ions, hard brine", "description": "The initial bottles tests were designed at the reported calcium binding capacity of the agents without changing the pH."}, "[6]": {"conditions": "agent 1.5 %, alkali NaOH, pH 10.20"}, "[7]": {"conditions": "agent 1.5 %, alkali NaOH, pH 8.80"}, "[8]": {"conditions": "agent 1.1 %, alkali Na2B2O4, pH 9.97"}, "[9]": {"conditions": "agent 1.1 %, alkali Na2B2O4, pH 10.10"}, "[10]": {"conditions": "agent 1.1 %, alkali Na2B2O4, pH 10.15"}, "[11]": {"conditions": "agent 1.1 %, alkali Na2CO3, pH 10.60"}, "[12]": {"conditions": "agent 1.1 %, alkali Na2CO3, pH 10.69"}, "[13]": {"conditions": "agent 1.1 %, alkali Na2CO3, pH 10.77"}, "[14]": {"conditions": "agent 0.8 %, alkali Na2B2O4, pH 10.10"}, "[15]": {"conditions": "agent 1.5 %, alkali Na2B2O4, pH 10.10"}, "[16]": {"conditions": "agent 1.5 %, alkali Na2CO3, pH 10.10"}}, "data": [{"smiles": "O=C(O)CN(CCN(CC(=O)O)CC(=O)O)CC(=O)O", "note": "[EDTA, ethylenediaminetetraacetic acid]", "values": [{"measurement": "complexing agent concentration when used with scale inhibitor", "setting": "[1]; in combination with 200 ppm VX9400", "value": "7,500 ppm"}]}, {"smiles": "O.O=C([O-])/C=C\\C(=O)[O-].[Na+].[Na+]", "note": "[Sodium maleate, sodium maleate monohydrate]", "values": [{"measurement": "Maximum pH", "setting": "[2]", "value": 10.2}, {"measurement": "overall assessment from bottle test results", "setting": "[3]", "value": "promising results"}, {"measurement": "Status (next day)", "setting": "[3]; [6]", "value": "clear"}, {"measurement": "Status (same day)", "setting": "[3]; [6]", "value": "clear"}]}, {"smiles": "O=P([O-])([O-])OP(=O)([O-])[O-].[K+].[K+].[K+].[K+]", "note": "[Tetrapotassium pyrophosphate]", "values": [{"measurement": "Status (next day)", "setting": "[3]; [7]", "value": "scale"}, {"measurement": "Status (same day)", "setting": "[3]; [7]", "value": "scale"}]}, {"smiles": "O=P(O)(O)OP(=O)(O)OP(=O)(O)O", "note": "[Sodium tripolyphosphate]", "values": [{"measurement": "water solubility", "setting": "[4]", "value": 14.5, "unit": "g/100 mL"}, {"measurement": "Status (next day)", "setting": "[3]; agent 1.15 %, no alkali added", "value": "scale"}, {"measurement": "Status (same day)", "setting": "[3]; agent 1.15 %, no alkali added", "value": "scale"}, {"measurement": "Status (next day)", "setting": "[3]; agent 1.5 %, no alkali added", "value": "scale"}, {"measurement": "Status (same day)", "setting": "[3]; agent 1.5 %, no alkali added", "value": "scale"}, {"measurement": "Status (next day)", "setting": "[3]; agent […], no alkali added", "value": "scale"}, {"measurement": "Status (same day)", "setting": "[3]; agent […], no alkali added", "value": "scale"}]}, {"smiles": "CC(=O)ON(CCN(OC(C)=O)OC(C)=O)OC(C)=O.[Na]", "note": "[EDTA-Na4, sodium ethylenediamine tetraacetate]", "values": [{"measurement": "pH value up to which effective", "setting": "[2]; 11,000 ppm in hard field brine (equimolar Ca:EDTA)", "value": "≤ 10.7"}, {"measurement": "Maximum pH", "setting": "[2]", "value": 10.7}, {"measurement": "Status (next day)", "setting": "[3]; [8]", "value": "clear"}, {"measurement": "Status (same day)", "setting": "[3]; [8]", "value": "clear"}, {"measurement": "Status (next day)", "setting": "[3]; [9]", "value": "clear"}, {"measurement": "Status (same day)", "setting": "[3]; [9]", "value": "clear"}, {"measurement": "Status (next day)", "setting": "[3]; [10]", "value": "clear"}, {"measurement": "Status (same day)", "setting": "[3]; [10]", "value": "clear"}, {"measurement": "Status (next day)", "setting": "[3]; [11]", "value": "clear"}, {"measurement": "Status (same day)", "setting": "[3]; [11]", "value": "clear"}, {"measurement": "Status (next day)", "setting": "[3]; [12]", "value": "clear"}, {"measurement": "Status (same day)", "setting": "[3]; [12]", "value": "clear"}, {"measurement": "Status (next day)", "setting": "[3]; [13]", "value": "clear"}, {"measurement": "Status (same day)", "setting": "[3]; [13]", "value": "clear"}]}, {"smiles": "O=C([O-])CC(O)(CC(=O)[O-])C(=O)[O-].[Na+].[Na+].[Na+]", "note": "[Sodium citrate, sodium citrate]", "values": [{"measurement": "overall assessment from bottle test results", "setting": "[3]", "value": "not a successful selection"}, {"measurement": "Status (next day)", "setting": "[3]; [14]", "value": "scale"}, {"measurement": "Status (same day)", "setting": "[3]; [14]", "value": "clear"}, {"measurement": "Status (next day)", "setting": "[3]; [15]", "value": "scale"}, {"measurement": "Status (same day)", "setting": "[3]; [15]", "value": "clear"}, {"measurement": "Status (next day)", "setting": "[3]; [16]", "value": "scale"}, {"measurement": "Status (same day)", "setting": "[3]; [16]", "value": "scale"}]}, {"smiles": "CC(C(=O)O)N(CC(=O)O)CC(=O)O", "note": "(stereo not shown) [MGDA, methylglycinediacetic acid]", "values": [{"measurement": "complexing agent concentration when used with scale inhibitor", "setting": "[1]; in combination with 500 ppm VX9400", "value": "5,500 ppm"}, {"measurement": "pH value up to which scaling prevented", "setting": "[5]", "value": "≤ 9.9"}]}, {"smiles": "O=C([O-])CN(CC(=O)[O-])CC(=O)[O-].[Na+].[Na+].[Na+]", "note": "[NTA-Na3, sodium nitrilotriacetate]", "values": [{"measurement": "Status (next day)", "setting": "[3]; agent 0.8 %, no alkali added", "value": "scale"}, {"measurement": "Status (same day)", "setting": "[3]; agent 0.8 %, no alkali added", "value": "scale"}, {"measurement": "Status (next day)", "setting": "[3]; agent 1.1 %, no alkali added", "value": "scale"}, {"measurement": "Status (same day)", "setting": "[3]; agent 1.1 %, no alkali added", "value": "scale"}, {"measurement": "Status (next day)", "setting": "[3]; agent 1.5 %, no alkali added", "value": "scale"}, {"measurement": "Status (same day)", "setting": "[3]; agent 1.5 %, no alkali added", "value": "scale"}]}]}
